The values that follow come from ChEMBL document CHEMBL1147641, “Highly potent and long-acting trimeric and tetrameric inhibitors of influenza virus neuraminidase” (Bioorg Med Chem Lett, 2004).

Assay [1] concerns Mus musculus. The assay can be described thus: Reduction in virus titre taken from mouse infected with Influenza A/Singapore/1/57 at 1.0 mg/kg dose in 7 day mouse influenza prevention assay. In kind it is functional.
A further assay concerns Influenza A virus. Nature of the assay: Antiinfluenza activity of compound against Influenza A/Sydney/5/97 in influenza cytopathic effect (CPE) assay. In kind it is functional, organism-based. On the technique in general: Protection from cytopathic effect is a common read-out in antiviral testing.
Assay [2] concerns Mus musculus. Nature of the assay: Reduction in virus titre taken from mouse infected with Influenza A/Singapore/1/57 at 0.1 mg/kg dose in 7 day mouse influenza prevention assay. The class given is functional.
A further assay concerns Influenza B virus. The assay can be described thus: Antiinfluenza activity of compound against Influenza B/Harbin/7/95 in influenza cytopathic effect (CPE) assay. In kind it is functional, organism-based.
In assay [3] the test system is Mus musculus. The assay can be described thus: Reduction in virus titre taken from mouse infected with Influenza A/Singapore/1/57 at 0.01 mg/kg dose in 7 day mouse influenza prevention assay. The class given is functional.
Assay [4] deals with Mus musculus. Nature of the assay: Number of virus free mice from total 10 mice infected with Influenza A/Singapore/1/57 after 12.5 mg/kg of intranasal administration for 172 hr prior to viral infection. The class given is functional.
Assay [5] deals with Mus musculus. The assay can be described thus: Reduction in virus titre taken from mouse infected with Influenza A/Singapore/1/57 at 1.6 mg/kg dose in 7 day mouse influenza prevention assay. In kind it is functional.
Assay [6] concerns Mus musculus. The assay can be described thus: Number of virus free mice from total 9 mice infected with Influenza A/Singapore/1/57 after 12.5 mg/kg of intranasal administration for 51 hr prior to viral infection. In kind it is functional.
Assay [7] relates to Mus musculus. The assay can be described thus: Number of virus free mice from total 8 mice infected with Influenza A/Singapore/1/57 after 12.5 mg/kg of intranasal administration for 172 hr prior to viral infection. In kind it is functional.
For assay [8], the system named is Mus musculus. Nature of the assay: Number of virus free mice from total 10 mice infected with Influenza A/Singapore/1/57 after 12.5 mg/kg of intranasal administration for 117 hr prior to viral infection. In kind it is functional.
Assay [9] relates to Mus musculus. The assay can be described thus: Number of virus free mice from total 9 mice infected with Influenza A/Singapore/1/57 after 12.5 mg/kg of intranasal administration for 145 hr prior to viral infection. In kind it is functional.
Assay [10] has as its system Mus musculus. The assay can be described thus: Reduction in virus titre taken from mouse infected with Influenza A/Singapore/1/57 at 0.4 mg/kg dose in 7 day mouse influenza prevention assay. The class given is functional.

In brackets after ≈: the same amount, converted by molar mass.

As a reminder, the EC50 is the midpoint of the concentration-response curve. A lower EC50 goes with higher potency in that assay. On to `CC(=O)N[C@H]1[C@H]([C@H](OC(=O)NCCCCCCNC(=O)CC(O)(CC(=O)NCCCCCCNC(=O)O[C@@H]([C@@H]2OC(C(=O)O)=C[C@H](N=C(N)N)[C@H]2NC(C)=O)[C@H](O)CO)C(=O)NCCCCCCNC(=O)O[C@@H]([C@@H]2OC(C(=O)O)=C[C@H](NC(=N)N)[C@H]2NC(C)=O)[C@H](O)CO)[C@H](O)CO)OC(C(=O)O)=C[C@@H]1N=C(N)N`, for which the values for the Effectiveness in the assay on Mus musculus [1] and with Mus musculus [2] were 99.11% and 85.88%, respectively. In addition, the results for the half-maximal effective concentration (EC50) with Influenza A virus and with Influenza B virus were 0.159 ng/mL (≈ 0.102 nM) and 2.48 ng/mL (≈ 1.58 nM), respectively.

Regarding `CC(=O)N[C@H]1[C@H]([C@H](OC(=O)NCCCCCCNC(=O)[C@H]2C[C@@H](C(=O)NCCCCCCNC(=O)O[C@@H]([C@@H]3OC(C(=O)O)=C[C@H](NC(=N)N)[C@H]3NC(C)=O)[C@H](O)CO)C[C@@H](C(=O)NCCCCCCNC(=O)O[C@@H]([C@@H]3OC(C(=O)O)=C[C@H](NC(=N)N)[C@H]3NC(C)=O)[C@H](O)CO)C2)[C@H](O)CO)OC(C(=O)O)=C[C@@H]1NC(=N)N`, the Effectiveness with Mus musculus [1] amounted to 98.32%; in the assay with Mus musculus [2], 94.38%. In addition, the figures for the EC50 in the assay on Influenza A virus and in the assay with Influenza B virus were 0.3 ng/mL (≈ 0.189 nM) and 0.438 ng/mL (≈ 0.276 nM), respectively.

On to `CC(=O)N[C@H]1[C@H]([C@H](OC(=O)NCCCCCCNC(=O)c2cc(C(=O)NCCCCCCNC(=O)O[C@@H]([C@@H]3OC(C(=O)O)=C[C@H](N=C(N)N)[C@H]3NC(C)=O)[C@H](O)CO)cc(C(=O)NCCCCCCNC(=O)O[C@@H]([C@@H]3OC(C(=O)O)=C[C@H](NC(=N)N)[C@H]3NC(C)=O)[C@H](O)CO)c2)[C@H](O)CO)OC(C(=O)O)=C[C@@H]1N=C(N)N`, for which the EC50 in the assay with Influenza A virus amounted to 0.82 ng/mL (≈ 0.519 nM); in the assay on Influenza B virus, 1.33 ng/mL (≈ 0.842 nM). Besides, the Effectiveness in the assay with Mus musculus [2] was determined as 96.24%; in the assay with Mus musculus [3] it was 70.15%.

For `CC(=O)N[C@H]1[C@H]([C@H](OC(=O)NCCCCCCNC(=O)CN(CCN(CC(=O)NCCCCCCNC(=O)O[C@@H]([C@@H]2OC(C(=O)O)=C[C@H](N=C(N)N)[C@H]2NC(C)=O)[C@H](O)CO)CC(=O)NCCCCCCNC(=O)O[C@@H]([C@@H]2OC(C(=O)O)=C[C@H](NC(=N)N)[C@H]2NC(C)=O)[C@H](O)CO)CC(=O)NCCCCCCNC(=O)O[C@@H]([C@@H]2OC(C(=O)O)=C[C@H](N=C(N)N)[C@H]2NC(C)=O)[C@H](O)CO)[C@H](O)CO)OC(C(=O)O)=C[C@@H]1N=C(N)N`, the EC50 in the assay with Influenza A virus came out at 1.07 ng/mL (≈ 0.505 nM); in the assay on Influenza B virus, 2.84 ng/mL (≈ 1.34 nM). The Effectiveness turned out to be 95.53% in the assay on Mus musculus [2] and 68.38% in the assay on Mus musculus [3].

Regarding `CC(=O)N[C@H]1[C@H]([C@H](OC(=O)NCCCCCCNC(=O)c2cc(C(=O)NCCCCCCNC(=O)O[C@@H]([C@@H]3OC(C(=O)O)=C[C@H](N=C(N)N)[C@H]3NC(C)=O)[C@H](O)CO)c(C(=O)NCCCCCCNC(=O)O[C@@H]([C@@H]3OC(C(=O)O)=C[C@H](NC(=N)N)[C@H]3NC(C)=O)[C@H](O)CO)cc2C(=O)NCCCCCCNC(=O)O[C@@H]([C@@H]2OC(C(=O)O)=C[C@H](N=C(N)N)[C@H]2NC(C)=O)[C@H](O)CO)[C@H](O)CO)OC(C(=O)O)=C[C@@H]1N=C(N)N`, the Effectiveness in the assay with Mus musculus [1] is reported as 99.68%; in the assay on Mus musculus [2], 74.88%. Besides, the results for the EC50 in the assay on Influenza A virus and in the assay on Influenza B virus were 0.53 ng/mL (≈ 0.255 nM) and 0.95 ng/mL (≈ 0.457 nM), respectively.

For the compound `CC(=O)N[C@H]1[C@H]([C@H](OC(=O)NCCCCCCN)[C@H](O)CO)OC(C(=O)O)=C[C@@H]1NC(=N)N`, the EC50 with Influenza A virus was found to be 438 ng/mL (≈ 923 nM); with Influenza B virus it was 213 ng/mL (≈ 449 nM).

With `CC(=O)N[C@H]1[C@H]([C@H](OC(=O)NCCCCCCNC(=O)CC(CC(=O)NCCCCCCNC(=O)O[C@@H]([C@@H]2OC(C(=O)O)=C[C@H](N=C(N)N)[C@H]2NC(C)=O)[C@H](O)CO)C(=O)NCCCCCCNC(=O)O[C@@H]([C@@H]2OC(C(=O)O)=C[C@H](NC(=N)N)[C@H]2NC(C)=O)[C@H](O)CO)[C@H](O)CO)OC(C(=O)O)=C[C@@H]1N=C(N)N`, the Effectiveness in the assay with Mus musculus [1] came out at 98.24%; with Mus musculus [2], 68.78%. Further, the results for the EC50 in the assay with Influenza A virus and with Influenza B virus were 0.4 ng/mL (≈ 0.259 nM) and 0.81 ng/mL (≈ 0.524 nM), respectively.

Regarding `CC(=O)N[C@H]1[C@H]([C@H](O)[C@H](O)CO)OC(C(=O)O)=C[C@@H]1NC(=N)N` [ZANAMIVIR], the “No. of virus free mice” value in the assay with Mus musculus [4] is listed as 0; in the assay with Mus musculus [6], 3; in the assay with Mus musculus [7], 0; in the assay with Mus musculus [8], 1; in the assay with Mus musculus [9], 3. The figures for the Effectiveness in the assay with Mus musculus [1], with Mus musculus [5] and in the assay on Mus musculus [10] were 81.76%, 97.03% and 0%, respectively. Also, the 50% effective concentration (EC50) in the assay on Influenza A virus worked out at 32.5 ng/mL (≈ 97.8 nM); in the assay with Influenza B virus, 12.2 ng/mL (≈ 36.7 nM).
